How the values were obtained:
[1] = system: Tg.AC mice; assay: UV-induced skin tumorigenesis in v-rasHa transgenic Tg.AC mice; format: in vivo, mouse
From the text: Animals. Homozygous v-rasHa transgenic mice on an FVB/N background were used in in vivo experiments. To obtain keratinocytes with genetic ablation of Erbb2, loxP sites were inserted flanking exon 2 of Erbb2 such that splicing from exon1 to downstream introns upon Cre recombinase expression creates a frameshift mutation. Mice were maintained in our animal facility and provided with Purina lab chow (Nestle Purina PetCare, St. Louis, Mo.) and water ad libitum. The dorsal skin was clipped one day before treatment using electric clippers (Wahl, Sterling, II) and shaved on the day of treatment with a Remington Microscreen shaver (Madison, N.C.). […] The Ultraviolet-B TL 40W/12 RS bulbs (Philips, Somerset, N.J.) used emitted approximately 30% UVA, 70% UVB and <1% UVC, with a total output of 470 μW/cm^2, as measured with radiometric photodetector probes (Newport, Irvine, Calif.). For tumor experiments, homozygous Tg.AC mice were treated and exposed twice with an interval of 7 d. Tumor number was counted and tumor volume measured weekly using calipers. Skin-fold thickness was measured using calipers (Mitutoyo, Aurora, Ill.) to lightly pinch the dorsal skin. All animal procedures were performed in accordance with American Association of Laboratory Animal Care guidelines and approved by Creighton University's Institutional Animal Care and Use Committee.
Statistical methods. The tumor experiment was analyzed using two-way ANOVA. Statistical significance in other experiments was assessed using two-way ANOVA or Student's t-test with Bonferroni post-test. All experiments, excluding the tumor experiment, were replicated several times and consistent results obtained.
The skin tumorigenesis experiment was performed in v-ras^Ha transgenic Tg.AC mice because of their enhanced sensitivity to UV-induced skin tumorigenesis (13; 52). […] While the vehicle-treated mice continued to accrue tumors throughout the duration of the experiment, the AG825-treated group reached a plateau in tumor number by 7 weeks after the first UV exposure. By the end of the experiment, mean tumor volume was also 70% less in the AG825-treated group when compared to the vehicle control. Representative tumors from each treatment were examined histologically and all were benign squamous papillomas with similar differentiation status.
Upon activation, Erbb2 heterodimerizes with either EGFR or Erbb3 to transduce signals. Support for the hypothesis that Erbb2 increases skin carcinogenesis comes from our investigations of the functions of its dimerization partner EGFR. A tumor study was conducted to assess the role of EGFR in the clonal expansion of transformed cells to form benign tumors in the skin of v-ras^Ha transgenic Tg.AC mice. Inhibition of EGFR with the tyrphostin inhibitor AG1478 decreased the number of tumors that developed by about 50% in UV-exposed v-rasHa transgenic mice. Mean tumor volume was 80% less upon inhibition of EGFR-mediated signaling when compared to, UV-exposed and vehicle-treated controls.

[2] = system: Cdc25a; assay: Cdc25a immunoblotting in keratinocytes; format: cell-based, mouse; conditions: vs appropriate controls
Description: Immunoblotting. Flash frozen skin was ground with a mortar and pestle on dry ice, homogenized in lysis buffer containing 10 mM Tris (pH 7.4), 150 mM NaCl, 10% glycerol, 1% Triton X-100, 1 mM EDTA, Complete Protease Inhibitor Cocktail (Roche, Germany), 1 mM Na3V O4, 1.5 μM EGTA, and 10 μM NaF. Protein was quantified using the Coomassie Brilliant Blue G-250 protein assay (Bio-Rad, Hercules, Calif.). The evenness of loading and transfer was determined by staining with Ponceau S and by actin immunoblotting. […]
Cell culture. […] Transfection efficiency was quantified by determining the proportion of the cells that incorporated the fluorescent Cy3-conjugated siRNA or GFP one day post-transfection. […]
In order to understand how Erbb2 regulates S-phase progression following UV irradiation, signaling pathways known to regulate progression into and through S-phase were examined. […] The effect of abrogation of Erbb2 on Cdc25a occurred post-transcriptionally, since no decrease in Cdc25a mRNA was detected in our microarray analysis using the Erbb2 inhibitor (32). […]

[3] = current Erbb2-targeted therapies; cited from earlier work
[4] = system: primary keratinocytes; conditions: cited from earlier work

Compound	skin toxicity [3]	S-phase arrest in keratinocytes by chemotherapeutic agents [4]	other results
COc1cc2ncnc(Nc3cccc(Cl)c3)c2cc1OC [AG1478]			mean tumor volume less than UV-exposed vehicle-treated controls ([1]; EGFR inhibition): 80%; decrease in the number of tumors that developed ([1]; UV-exposed v-rasHa transgenic mice, EGFR inhibition): about 50%; UV-induced carcinogenesis (FIG. 6) ([1]; topical treatment 2 h prior to UV irradiation): suppress; Cdc25a immunoreactivity [2]: not decreased
pertuzumab: current Erbb2-targeted therapy	Low incidence		
O=c1[nH]cc(F)c(=O)[nH]1 [5-FU, 5-fluorouracil]		cause S-phase arrest	
CC[C@@]1(O)C(=O)OCc2c1cc1n(c2=O)Cc2cc3ccccc3nc2-1 [camptothecin]		cause S-phase arrest	
COCC(=O)NC/C=C/c1ccc2ncnc(Nc3ccc(Oc4ccc(C)nc4)c(C)c3)c2c1 [CP-724714]	Low incidence		

Reference: US20080119530A1, “Method for treatment and prevention of ultraviolet light induced skin pathologies” (priority 2006, published 2008)
